Reference: patent publication US12365658B2, “Benzothia(di)azepine compounds and their use as bile acid modulators” (Albireo AB, priority 2021, dated 2025)

System: Caco-2 cells
Experiment: Bidirectional permeability assay (Caco-2 cells)
Assay type: in vitro ADME
Details: 10 μM in FaSSIF buffer, 120 minutes; for Permeability (Caco-2) Papp A2B: absorptive direction (A2B); for Permeability (Caco-2) Papp B2A: secretory direction (B2A)
Method: Bidirectional Permeability Assay (Caco-2 Cells)
Caco-2 cells (Evotec) were seeded at a density of 70,000 cells/well in Millicell® 24-well cell culture insert plates and maintained in an incubator (37° C., 5% CO2, 95% RH) for 21 days with media change on alternate days.
Stock solutions (10 mM) of the test compounds, atenolol (low permeability marker), propranolol (high permeability marker) and digoxin (substrate for P-gp transport pathway) were prepared in dimethylsulfoxide (DMSO). An intermediate stock solution (1 mM) was prepared by diluting 10 μL of 10 mM master stock solution with 90 μL of neat DMSO. A working stock solution (10 μM) was prepared by diluting 50 μL of 1 mM with 4950 μL of FaSSIF buffer. Post addition of compounds to the FaSSIF, samples were subjected to sonication for 2 hours, and centrifuged at 4000 RPM for 30 minutes at 37° C. The 4 mL of resultant supernatant was directly used in the assay. The final DMSO concentration in the transport experiments was 1%.
On the day of assay, Caco-2 monolayers were washed twice with transport buffer (HBSS, pH 7.4) and pre-incubated for 30 min (37° C., 5% CO2, 95% RH) in an incubator. The electrical resistance of the monolayers was measured with a Millicell®-ERS system. Monolayers with trans-epithelial electrical resistance (TEER) values greater than 350 ohm·cm^2 were selected for the assay.
The assay was conducted in absorptive direction (A2B) and secretory (B2A) directions. Transport experiments were initiated by addition of transport assay buffer (FaSSIF buffer prepared in HBSS) consisting of compounds to the donor compartment (apical chamber A-B; basolateral chamber B-A) in duplicate (n=2) wells. Drug free HBSS buffer (pH 7.4) containing 1% bovine serum albumin (BSA) was introduced to the receiver (A-B-basolateral; B-A-Apical) compartments. The volumes of apical and basolateral compartments were 0.4 and 0.8 mL, respectively. After adding dosing solution, plates were incubated in an incubator for 120 minutes at 37° C. After 120 minutes, donor and receiver samples were collected and matrix matched (1:1, 30 μL study sample+30 μL blank buffer) with the opposite buffer. Dosing samples matrix matched (1:1, 30 μL study sample+30 μL blank buffer) with the opposite buffer. Samples were processed by adding acetonitrile containing internal standard (60 μL study sample+200 μL acetonitrile containing internal standard-Tolbutamide, 500 ng/mL). Samples were vortexed and centrifuged at 4000 rpm for 10 minutes. The obtained supernatant (100 μL) was diluted with 100 μL of water and transferred to fresh 96 well plates. The concentration of compounds in the samples was analyzed by liquid chromatography tandem mass spectrometry (LC-MS/MS) method using discovery grade bio-analytical method, as applicable.
The mean apparent permeability (Papp, ×10^−6 cm/sec) of the test compounds, atenolol, propranolol and digoxin were calculated as follows:
where dq/dt=rate of transport (rate of transport of compound in the receiver compartment), C0=initial concentration in the donor compartment, A=surface area of the effective filter membrane.

SMILES	Permeability (Caco-2) Papp A2B [×10⁻⁶ cm/s]	Permeability (Caco-2) Papp B2A [×10⁻⁶ cm/s]
CCCCC1CN(c2ccccc2)c2cc(SC)c(OCC(C)(OC)C(=O)O)cc2S(=O)(=O)N1C (single isomer, unassigned) [24, diastereomer 2]	16.3	24
CCCCC1CN(c2ccccc2)c2cc(SC)c(OCC(C)(OC)C(=O)O)cc2S(=O)(=O)N1C (single isomer, unassigned) [24, diastereomer 1]	8.6	15.9
